Results taken from ChEMBL document CHEMBL5096222, “Discovery of a Trifluoromethoxy Cyclopentanone Benzothiazole Receptor-Interacting Protein Kinase 1 Inhibitor as the Treatment for Alzheimer's Disease” (J Med Chem, 2022).

Legend:
[1] = Cytotoxicity against human HT-29 cells assessed as reduction in cell viability by celltiter-glo luminescent cell viability assay; type: toxicity, cell-based
[2] = tested on: HT-29; test: Anti-necroptotic activity in TSZ induced human HT-29 cells assessed as increase in cell viability pretreated with compound followed by TSZ stimulation and measured after 16 hrs by celltiter-glo luminescent cell viability assay; type: functional, cell-based
[3] = target: T1, Receptor-interacting serine/threonine-protein kinase 1 (Homo sapiens, UniProt Q13546); test: Binding affinity to recombinant human wild type partial length RIPK1 (M1 to K305 residues) expressed in bacterial expression system by KINOMEscan TM assay
T1 sequence (Q13546 whole entry): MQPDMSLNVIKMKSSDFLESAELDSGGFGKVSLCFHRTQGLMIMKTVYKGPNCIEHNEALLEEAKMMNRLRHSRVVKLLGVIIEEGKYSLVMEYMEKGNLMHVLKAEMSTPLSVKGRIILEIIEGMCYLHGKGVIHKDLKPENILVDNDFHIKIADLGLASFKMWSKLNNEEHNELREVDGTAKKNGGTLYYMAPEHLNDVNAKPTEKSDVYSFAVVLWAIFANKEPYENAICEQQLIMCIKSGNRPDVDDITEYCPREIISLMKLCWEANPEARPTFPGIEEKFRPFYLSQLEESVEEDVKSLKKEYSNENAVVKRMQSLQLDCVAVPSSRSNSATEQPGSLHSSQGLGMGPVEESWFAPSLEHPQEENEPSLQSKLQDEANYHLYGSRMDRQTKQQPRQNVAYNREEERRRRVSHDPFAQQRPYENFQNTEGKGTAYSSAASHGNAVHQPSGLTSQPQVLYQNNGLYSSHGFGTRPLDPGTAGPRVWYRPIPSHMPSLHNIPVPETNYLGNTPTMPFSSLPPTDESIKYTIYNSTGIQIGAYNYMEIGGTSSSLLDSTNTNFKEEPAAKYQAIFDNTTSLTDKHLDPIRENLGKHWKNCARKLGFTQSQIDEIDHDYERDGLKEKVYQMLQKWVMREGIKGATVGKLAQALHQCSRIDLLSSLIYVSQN

[4] = target: Receptor-interacting serine/threonine-protein kinase 3 (Homo sapiens, UniProt Q9Y572); test: Binding affinity to recombinant human wild type partial length RIPK3 (M1 to Q307 residues) expressed in bacterial expression system by KINOMEscan TM assay
Sequence of Receptor-interacting serine/threonine-protein kinase 3 (Q9Y572 whole entry, the tested form may be a part): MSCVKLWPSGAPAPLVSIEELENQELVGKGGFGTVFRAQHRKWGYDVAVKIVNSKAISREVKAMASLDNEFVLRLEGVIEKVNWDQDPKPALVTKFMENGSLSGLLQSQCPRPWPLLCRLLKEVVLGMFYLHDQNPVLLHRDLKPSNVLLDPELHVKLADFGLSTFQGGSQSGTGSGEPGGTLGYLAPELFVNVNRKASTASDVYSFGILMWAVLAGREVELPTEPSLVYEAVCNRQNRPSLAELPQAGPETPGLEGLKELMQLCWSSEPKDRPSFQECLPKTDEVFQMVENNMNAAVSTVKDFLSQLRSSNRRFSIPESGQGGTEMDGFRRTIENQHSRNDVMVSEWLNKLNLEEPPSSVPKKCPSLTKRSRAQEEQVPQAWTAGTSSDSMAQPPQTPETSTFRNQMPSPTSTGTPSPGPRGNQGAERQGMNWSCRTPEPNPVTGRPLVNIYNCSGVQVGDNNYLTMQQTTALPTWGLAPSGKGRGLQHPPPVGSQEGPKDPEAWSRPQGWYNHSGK

Question: With CN1C(=O)[C@@H](NC(=O)c2nnc(Cc3ccccc3)[nH]2)COc2ccccc21 [GSK2982772] as the compound, how does the CC50 [1] read?
Answer: > 50 µM

Question: With O=C1CCC(C(=O)Nc2nc3cc(Oc4ccc(F)c(NC(=O)Cc5cccc(OC(F)(F)F)c5)c4)c(F)cc3s2)C1 (stereo not drawn) as the compound, how does the EC50 [2] read?
Answer: 0.008 µM

Question: And the CC50 [1]?
Answer: > 50 µM

Question: What about the Kd [3] of the same compound?
Answer: 0.0096 µM

Question: What about the Kd [4] of the same compound?
Answer: > 5 µM

Question: Which results are given for O=C1CCC(C(=O)Nc2nc3cc(Oc4ccc(F)c(NC(=O)Cc5cccc(OC(F)(F)F)c5)c4)c(F)cc3s2)CC1?
Answer: EC50 [2]: 0.01 µM; CC50 [1]: > 50 µM; Kd [3]: 0.0045 µM; Kd [4]: > 5 µM

Question: Which results are given for O=C(Cc1cccc(C(F)(F)F)c1)Nc1cc(Oc2cc3nc(NC(=O)C4CC4)sc3cc2F)ccc1F?
Answer: EC50 [2]: 0.17 µM; CC50 [1]: 36.5 µM; Kd [3]: 0.097 µM; Kd [4]: 0.077 µM
